Values quoted from earlier work, collected in patent US11857520B2, “Therapeutic composition of intranasal lidocaine” (Nortic Holdings Inc., priority 2018, dated 2024).

Experiments:
[1] = tested on: skin; settings: HSDB database
[2] = tested on: human retinal pigment epithelial cell; settings: 0.225 mg/ml in triamcinolone acetonide (TA) following intravitreal injection, at 2 hours
[3] = generally recognized

| Structure (SMILES) | level irritating to the skin [1] [%] | effect on human retinal pigment epithelial cells [2] | Maximum dose [3] [mg/kg] | duration of action [3] [h] |
| --- | --- | --- | --- | --- |
| OCc1ccccc1 [benzyl alcohol] | ≥ 3 | caused ultrastructural damage and impaired human retinal pigment epithelial cell function |  |  |
| CCCCN1CCCCC1C(=O)Nc1c(C)cccc1C (centres unmarked) [bupivacaine] |  |  | 3 |  |
| CCN(CC)CCOC(=O)c1ccc(N)cc1Cl [chloroprocaine] |  |  | 12 |  |
| COC(=O)[C@H]1[C@@H](OC(=O)c2ccccc2)C[C@@H]2CC[C@H]1N2C [cocaine] |  |  | 3 |  |
| CCN(CC)CC(=O)Nc1c(C)cccc1C [lidocaine] |  |  | 4.5 | 0.75 to 1.5 |
| Cc1cccc(C)c1NC(=O)C1CCCCN1C (centres unmarked) [mepivacaine] |  |  | 4.5 | 1 to 2 |
| CCCNC(C)C(=O)Nc1ccccc1C (centres unmarked) [prilocaine] |  |  | 8 |  |
| CCN(CC)CCOC(=O)c1ccc(N)cc1 [procaine] |  |  | 12 |  |
| CCCN1CCCC[C@H]1C(=O)Nc1c(C)cccc1C [ropivacaine] |  |  | 3 |  |
| CCCCNc1ccc(C(=O)OCCN(C)C)cc1 [tetracaine] |  |  | 3 | 1.5 to 6 |
